≈ marks a conversion by molar mass, not a printed value. Like-named read-outs stand apart in the source and are kept apart here.
Assays:
[1] = test system: Haemophilus influenzae clinical isolates (40); assay: Antibacterial in vitro activity, MIC, clinical isolates; assay type: cell-based; conditions: 40 clinical isolates
Procedure: (§1) Antibacterial in vitro activity of the novel compounds of the general formula (I) and their pharmaceutically acceptable addition salts with inorganic or organic acids on a series of standard test-microorganisms was determined in a Mueller-Hinton medium (Difco-Laboratories, Detroit, Mich.) by a conventional method of double dilution in accordance with recommendations of NCCLS (The National Committee for Clinical Laboratory Standards). Each test microorganism was inoculated to the final inoculum size of 5×10^5 cfu/ml and the incubation was carried out in an […] manner at 37° C. during 18 hours. The MIC in the liquid medium was defined as the lowest concentration of an antibacterial agent inhibiting visible growth in microdilutional containers. Control organisms were obtained from ATCC (The American Type Culture Collection). All standards were identified by a standard procedure and were storaged at −70° C.

[2] = test system: Staph. aureus. clinical isolates (77); assay: as above; assay type: cell-based; conditions: 77 clinical isolates
Procedure: as §1

[3] = test system: Enterococcus sp. clinical isolates (35); assay: as above; assay type: cell-based; conditions: 35 clinical isolates
Procedure: as §1

[4] = test system: S. epidermidis clinical isolates (20); assay: as above; assay type: cell-based; conditions: 20 clinical isolates
Procedure: as §1

[5] = test system: Streptococcus pneumoniae clinical isolates (25); assay: as above; assay type: cell-based; conditions: 25 clinical isolates
Procedure: as §1

M. luteus ATCC 9341 = assay: Antibacterial in vitro activity, MIC by double dilution, standard strains; assay type: cell-based; conditions: 37° C., 18 hours
Procedure: as §1

B. cereus ATCC 11778 = assay: as above; assay type: cell-based; conditions: 37° C., 18 hours
Procedure: as §1

[6] = test system: Staphylococcus aureus ATCC 6538 P; assay: as above; assay type: cell-based; conditions: 37° C., 18 hours
Procedure: as §1

S. aureus ATCC 29213 = assay: as above; assay type: cell-based; conditions: 37° C., 18 hours
Procedure: as §1

[7] = test system: Micrococcus flavus ATCC 10240; assay: as above; assay type: cell-based; conditions: 37° C., 18 hours
Procedure: as §1

[8] = test system: Streptococcus faecalis ATCC 8043; assay: as above; assay type: cell-based; conditions: 37° C., 18 hours
Procedure: as §1

[9] = test system: Bacillus subtilis ATCC 6633; assay: as above; assay type: cell-based; conditions: 37° C., 18 hours
Procedure: as §1

[10] = test system: Escherichia coli ATCC 10536; assay: as above; assay type: cell-based; conditions: 37° C., 18 hours
Procedure: as §1

[11] = test system: S. eperidermidis ATCC 12228; assay: as above; assay type: cell-based; conditions: Mueller-Hinton medium, 37° C., 18 hours
Procedure: as §1

[12] = rat, in vivo, po, 20 mg/kg

CC[C@H]1OC(=O)[C@H](C)[C@@H](O[C@H]2C[C@@](C)(OC)[C@@H](O)[C@H](C)O2)[C@H](C)[C@@H](O[C@@H]2O[C@H](C)C[C@H](N(C)C)[C@H]2O)[C@](C)(O)C[C@@H](C)CN(C)[C@H](C)[C@@H](O)[C@]1(C)O [Azithromycin, 9-deoxo-9a-methyl-9a-aza-9a-homoerythromycin, reference compound]
MIC50 [1]: 0.25 µg/mL (≈ 0.334 µM)
MIC90 [1]: 0.5 µg/mL (≈ 0.668 µM)
MIC Range [1]: 0.12 to 0.5 µg/mL
MIC Range [2]: 0.25 to 8 µg/mL
MIC50 ([2]; Staphylococcus aureus): 1 µg/mL (≈ 1.34 µM)
MIC90 ([2]; Staphylococcus aureus): 4 µg/mL (≈ 5.34 µM)
MIC50 [3]: 1 µg/mL (≈ 1.34 µM)
MIC90 [3]: 16 µg/mL (≈ 21.4 µM)
MIC Range [3]: 0.25 to 16 µg/mL
MIC Range [4]: 0.25 to 16 µg/mL
MIC50 ([4]; Staphylococcus epidermidis): 0.25 µg/mL (≈ 0.334 µM)
MIC90 ([4]; Staphylococcus epidermidis): 8 µg/mL (≈ 10.7 µM)
MIC50 [5]: 0.05 µg/mL (≈ 0.0668 µM)
MIC90 [5]: 0.12 µg/mL (≈ 0.16 µM)
MIC Range [5]: 0.03 to 0.25 µg/mL
MIC (M. luteus ATCC 9341; Micrococcus luteus, ATCC9341, Mueller-Hinton medium, read-out: MIC): 0.06 µg/mL (≈ 0.0801 µM)
MIC (B. cereus ATCC 11778; Bacillus cereus, ATCC11778, Mueller-Hinton medium, read-out: MIC): 1 µg/mL (≈ 1.34 µM)
MIC ([6]; ATCC6538, Mueller-Hinton medium, read-out: MIC): 1 µg/mL (≈ 1.34 µM)
MIC (S. aureus ATCC 29213; Staphylococcus aureus, ATCC29213, Mueller-Hinton medium, read-out: MIC): 0.25 µg/mL (≈ 0.334 µM)
MIC ([7]; ATCC10240, Mueller-Hinton medium, read-out: MIC): 0.5 µg/mL (≈ 0.668 µM)
MIC ([8]; Enterococcus faecalis, ATCC8043, Mueller-Hinton medium, read-out: MIC): 0.5 µg/mL (≈ 0.668 µM)
MIC ([9]; ATCC6633, Mueller-Hinton medium, read-out: MIC): 4 µg/mL (≈ 5.34 µM)
MIC ([10]; ATCC10536, Mueller-Hinton medium, read-out: MIC): 1 µg/mL (≈ 1.34 µM)
MIC ([11]; read-out: MIC): 0.5 µg/mL (≈ 0.668 µM)

CC[C@H]1OC(=O)[C@H](C)[C@@H](O[C@H]2C[C@@](C)(OC)[C@@H](O)[C@H](C)O2)[C@H](C)[C@@H](O[C@@H]2O[C@H](C)C[C@H](N(C)C)[C@H]2O)[C@](C)(O)C[C@@H](C)CN(C)[C@H](C)[C@@H](O)[C@]1(C)OC [12-O-Methyl-azithromycin]
Cmax (maximum substance concentration in serum) [12]: 248.8 ng/mL
absorption in the serum [12]: very fast absorbed
half-life [12]: 5.2 h
time at which the maximum substance concentration was achieved [12]: 2 h
time of secondary maximum after the application [12]: 4 h
total AUC [12]: 1993.4 ng·h/mL
MIC 50% [1]: 0.12 µg/mL (≈ 0.157 µM)
MIC 90% [1]: 0.25 µg/mL (≈ 0.328 µM)
MIC Range [1]: 0.06 to 0.5 µg/mL
MIC 50% [2]: 0.25 µg/mL (≈ 0.328 µM)
MIC 90% [2]: 1 µg/mL (≈ 1.31 µM)
MIC Range [2]: 0.12 to 2 µg/mL
MIC 50% [3]: 0.5 µg/mL (≈ 0.655 µM)
MIC 90% [3]: 8 µg/mL (≈ 10.5 µM)
MIC Range [3]: 0.12 to 8 µg/mL
MIC 50% [4]: 0.25 µg/mL (≈ 0.328 µM)
MIC 90% [4]: 4 µg/mL (≈ 5.24 µM)
MIC Range [4]: 0.12 to 8 µg/mL
MIC 50% [5]: 0.03 µg/mL (≈ 0.0393 µM)
MIC 90% [5]: 0.12 µg/mL (≈ 0.157 µM)
MIC Range [5]: 0.03 to 0.12 µg/mL
MIC (M. luteus ATCC 9341; Mueller-Hinton medium): 0.03 µg/mL (≈ 0.0393 µM)
MIC (B. cereus ATCC 11778; Mueller-Hinton medium): 0.25 µg/mL (≈ 0.328 µM)
MIC ([6]; Mueller-Hinton medium): 0.25 µg/mL (≈ 0.328 µM)
MIC (S. aureus ATCC 29213; Mueller-Hinton medium): 0.25 µg/mL (≈ 0.328 µM)
MIC ([7]; Mueller-Hinton medium): 0.12 µg/mL (≈ 0.157 µM)
MIC ([8]; Mueller-Hinton medium): 0.25 µg/mL (≈ 0.328 µM)
MIC ([9]; Mueller-Hinton medium): 1 µg/mL (≈ 1.31 µM)
MIC ([10]; Mueller-Hinton medium): 0.5 µg/mL (≈ 0.655 µM)
MIC [11]: 0.03 µg/mL (≈ 0.0393 µM)
